In patent publication US6906237B2, “Vivo assay for anti angiogenic compounds” (priority 2001, dated 2005):
Entries after “also recorded” stand apart in the source; their conditions may differ.

B1: endostatin: recombinant human endostatin, 22kD protein expressed by HEK293 cells stably transfected with plasmid pGT60hEndo (HEK293endo) (protein, UniProt P39060 1572-1754, looked up)
Endostatin: HSHRDFQPVLHLVALNSPLSGGMRGIRGADFQCFQQARAVGLAGTFRAFLSSRLQDLYSIVRRADRAAVPIVNLKDELLFPSWEALFSGSEGPLKPGARIFSFDGKDVLRHPTWPQKSVWHGSDPNGRRLTESYCETWRTEAPSATGQASSLLGGRLLGQSAASCHHAYIVLCIENSFMTASK
modifications: Endostatin

How the values were obtained:
[1] = test system: HDMEC-GT derived microvessels; experiment: SCID mice xenografting of HDMEC-GT in Matrigel with pro-angiogenic factors; human vessel density by human type IV collagen micromorphometry; type: in vivo, human cells in SCID mice; conditions: for human vessel density (human type IV collagen micromorphometry), result in words: VEGF 2 μg/ml or FGF-2 150 ng/ml in Matrigel with HDMEC-GT, two weeks after implantation, versus controls
Experimental: (§1) This procedure is based on a modification of the mouse angiogenesis model previously described^41. Two-three week old male or female SCID mice (Taconic, Germantown, N.Y.) were used as hosts for all implants. Primary HDMEC and HDMEC-T were harvested, washed twice and re-suspended in serum-free EGM-2 basal medium at the concentration of 1×10^5/μl. Ten μl of cells were mixed with 0.5 ml of Matrigel on ice and the mixture was implanted in the ventral midline thoracic tissue of each mouse by subcutaneous injection using a #25 needle. Up to three separate injections could be performed on a single mouse. For some experiments, recombinant human VEGF165 (2 μg/ml) (R&D systems, Minneapolis, Minn.) or bovine FGF-2 (150 ng/ml) (R&D systems, Minneapolis, Minn.) were added to the mixture. When tumor cells (HT1080 and 293, ATCC) or primary human dermal fibroblasts^38 were injected, the procedure remained the same except basal D-MEM medium replaced EGM-2.
(§2) Matrigel implants were removed at 1, 2, 4 and 6 wk following xenografting, fixed in 10% buffered formalin overnight, paraffin-embedded and sectioned. H&E stained thin sections were prepared at Pan-insular Histopathology laboratory (Los Gatos, Calif.). For immunofluoresence, thin sections were deparaffinized and antigens retrieved in 10 mM citric acid (pH 6.0) by microwaving sections for 2×7 min. Sections were then incubated with anti-human type IV collagen IgG (Sigma, St. Louis, Mo.) primary antibody, followed by washing and Cy-3 conjugated secondary IgG according to standard protocols. […] For micromorphometry, 5 separate 20× fields were randomly selected per tissue section and the number of annular structures were counted and averaged. Unless specifically stated otherwise, 3 different sections were viewed per implant and replicate implants were grafted for each experimental condition (FIGS. 3 and 6).

[2] = test system: host murine blood vessels; experiment: Host vessel invasion of Matrigel implants in SCID mice without human EC; type: in vivo; conditions: FGF-2 alone in Matrigel, no HDMEC
Experimental: as §1
Matrigel implants were removed at 1, 2, 4 and 6 wk following xenografting, fixed in 10% buffered formalin overnight, paraffin-embedded and sectioned. H&E stained thin sections were prepared at Pan-insular Histopathology laboratory (Los Gatos, Calif.). […] For micromorphometry, 5 separate 20× fields were randomly selected per tissue section and the number of annular structures were counted and averaged. […]

[3] = test system: HDMEC-GT derived microvessels; experiment: Endostatin blocking experiments: HDMEC-GT co-implanted with endostatin cDNA-transfected HEK293 cells in Matrigel in SCID mice; type: in vivo, human cells in SCID mice; conditions: 1:10 ratio HEK293endo to HDMEC-GT, implants removed after one and two weeks, versus sham-transfected HEK293lacZ
Experimental: as §2
For digital analysis of eGFP fluorescence images we used a novel algorithm (Moss Filter™) to determine the total amount of vascularization in each implant section. This filter determines whether or not each pixel is part of the fluorescently-labeled vascular region. The filter converts the original (8-bit) digital image into a binary image. Pixel values equal to 1 indicate vascularization, whereas zero values indicate no vascularization. The total amount of vascularization in each implant section is obtained by summing all the values in the binary image.
Inhibition of in vivo vessel formation by local delivery of human endostatin was accomplished as follows: The plasmid pGT60hEndo, expressing recombinant human endostatin (InvivoGen, San Diego, Calif.), was stably transfected into human embryonic kidney (HEK293) cell line by calcium phosphate transfection (Invitrogen, Carlsbad, Calif.). […] HEK293 cells expressing lacZ served as a control for both Western blots and grafting experiments. The cell implantation procedure was the same as that described above except that 1×10^5 (or 10^4 or 10^3) transfected HEK were mixed with HDMEC-GT immediately prior to implantation. Grafts were examined at both one week and two after injection and sections were analyzed by both micromorphometry and eGFP as previously described.

[4] = listed as recombinant human endostatin

Molecule | increased vessel density relative to controls ([1]; VEGF 2 μg/ml mixed with HDMEC-GT and Matrigel, two weeks after grafting, human type IV collagen micromorphometry) | human vessel density (human type IV collagen micromorphometry), result in words [1] | host vessel invasion of Matrigel implants [2] | vessel density by micromorphometry (human type IV collagen staining) [3] | vessel density by total fluorescence intensity extracted from binary images of eGFP (Moss Filter) [3] | vessel density by micromorphometry (human type IV collagen staining) [3, 4] | vessel density by total fluorescence intensity extracted from binary images of eGFP (Moss Filter) [3, 4]
VEGF | 20-30% | increased vessel density; also recorded: did not demonstrate statistical significance |  |  |  |  | 
FGF-2: bovine FGF-2 (R&D systems), known pro-angiogenic factor |  | statistically increased human vessel density | stimulated; also recorded: marked host vessel invasion |  |  |  | 
B1 |  |  |  | statistically significant loss of vessel density | statistically significant loss of vessel density | decreased microvessel formation | decreased microvessel formation
